Data: PubChem BioAssay AID2061108 (Research group of Professor Matthew Todd, School of …, 2025)
The source made the active and inactive calls. How the calls were made is not given here.

Experiments:
Assay in all cases: microbial growth inhibition plus red cell haemolysis – Idler compounds, first plate, PMBN-permeabilized strains, profiling panel (AID 2061108)
Design in all cases: haemolysis: dose or concentration left out as unconfirmed
[1] = test system: E. coli NCTC 12923 growth inhibition, 100 uM; details: E. coli NCTC 12923 growth inhibition, 100 µM; stronger effect = higher value
[2] = test system: A. baumannii ATCC 17978 growth inhibition, 100 uM; details: S. aureus ATCC 9144 growth inhibition; measured here: A. baumannii ATCC 17978; at 100 µM; stronger effect = higher value
[3] = test system: M. avium growth inhibition, 10 uM; details: M. avium growth inhibition, 10 µM
[4] = test system: E. coli NCTC 12923 + PMBN growth inhibition, 100 uM; details: S. aureus ATCC 9144 growth inhibition; measured here: E. coli plus PMBN; at 100 µM; stronger effect = higher value
[5] = test system: red blood cell haemolysis; details: stronger effect = higher value; dose or concentration not given here
[6] = test system: M. abscessus growth inhibition, 10 uM; details: S. aureus ATCC 9144 growth inhibition; measured here: M. abscessus; at 10 µM
[7] = test system: A. baumannii ATCC 17978 + PMBN growth inhibition, 100 uM; details: A. baumannii plus PMBN growth inhibition, 100 µM; stronger effect = higher value
[8] = test system: S. aureus ATCC 9144 growth inhibition, 100 uM; details: S. aureus ATCC 9144 growth inhibition; at 100 µM; stronger effect = higher value
[9] = test system: C. albicans NCPF 3281 growth inhibition, 100 uM; details: S. aureus ATCC 9144 growth inhibition; measured here: C. albicans NCPF 3281; at 100 µM; stronger effect = higher value

Row | SMILES | inhibition [1] | inhibition [2] | inhibition [3] | inhibition [4] | haemolysis [5] | inhibition [6] | inhibition [7] | inhibition [8] | inhibition [9]
1 | O=C(NCCn1ccc2ccccc21)Nc1c[nH]c2ccccc12 | -5.81% | 1.2% | 1.09% | 8.41% | 0.223% | 0.723% | 55% | 1.75% (inactive) | -13.8%
2 | CC(=O)NCCC(=O)NNC(=O)c1cc(-c2ccccn2)nc2ccccc12 | -5.54% | -4.58% | -0.099% | -9.76% | 0.542% | -0.278% | 4.14% | -6.67% (inactive) | -14.4%
3 | COc1cc2nc(Nc3cc(C)[nH]n3)nc(N3CC(N(C)C)C3)c2cc1OC | 5.14% | 3.33% | 1.81% | -10.1% | 0.198% | -0.369% | 17.5% | 33% (inactive) | 13.3%
4 | COc1cccc(C(=O)NCCOCc2cccc(N)c2)c1 | -10.5% | -1.45% | 2.24% | 4.39% | 0.269% | -0.253% | 23.9% | 13.7% (inactive) | -63.9%
5 | N#Cc1c(NC[C@H]2CCCN2)nc2ccccc2c1C(F)(F)F | 12.8% | 9.76% | -0.31% | 17.7% | 0.41% | -1.13% | 53.6% | 99.7% | -78.9%
6 | Oc1ccc(CN2CCN(c3ccccc3F)CC2)c2cccnc12 | -2.43% | 14.6% | -0.052% | 6.46% | 1.25% | 0.148% | 18.1% | 6.49% | 95.2%
7 | COc1cc2nc(Nc3cc(C)[nH]n3)nc(NC3CCN(C(=O)OC(C)(C)C)CC3)c2cc1OC | 14.5% | 48.6% | 3.94% | 78.8% | 2.1% | 0.14% | 70.4% | 99.8% | -108%
8 | O=C(Nc1ccc(Oc2ccccc2)cc1)c1ccc(-c2nn[nH]n2)nc1 | 0.676% | -1.31% | -0.673% | 10.6% | -0.153% | -0.682% | 15.2% | 15% (inactive) | -10.3%
9 | CS(=O)(=O)CCCNC[C@@H](O)c1ccccc1 | -6.89% | -0.12% | 0.187% | 1.22% | 0.325% | -0.256% | 20.9% | 14.7% (inactive) | -65.9%
10 | O=S(=O)(F)c1ncc(Cl)cc1Br | -27.7% | 0.595% | 0.219% | -23.7% | 0.564% | -0.925% | 5.94% | -14.2% (inactive) | -41.4%
11 | COc1cc(OC)cc(C2(NC(=O)c3ccc(N4CCOCC4)cc3)COC2)c1 | 0.541% | 2.38% | -0.0617% | 0.123% | -0.148% | -0.558% | 19.4% | 11.7% (inactive) | -72%
12 | O=S(=O)(Nc1ccc(Oc2ccccc2)cc1)c1cccc(C(F)(F)F)c1 | -5.41% | 59.2% | 0.528% | 90% | 1.23% | -0.452% | 67.9% | 81.9% | 25.3%
